Assays:
enzyme I (EI) [1] = biological target: enzyme I (EI) (Escherichia coli, UniProt P08839, R465A); assay: NMR chemical shift titration; type: binding
enzyme I (EI) [2] = biological target: enzyme I (EI) (Escherichia coli, UniProt P08839); assay: NMR chemical shift titration; type: binding
C=C(OP(=O)(O)O)C(=O)O = assay: steady-state enzyme kinetics of the R465A EIC mutant with PEP; type: biochemical, Escherichia coli; conditions: Mg2+ active site of the C-terminal domain

Compound: O=C(O)CCC(=O)C(=O)O [αKG, α-ketoglutarate]
- Kd (enzyme I (EI) [1]): ~6.7 mM
- Kd (enzyme I (EI) [2]): ~2.2 mM

Compound: enzyme I (EI) (Escherichia coli K-12; R465A)
- Km (C=C(OP(=O)(O)O)C(=O)O): 1.6 ± 0.4 mM

From PMC3735840 (ACS chemical biology, 2013)
